One series relates to Schistosoma mansoni. The series can be described thus: Schistosomicidal activity in infected mice (VD50). Format: in vivo. The following applies: po, 1008 h, p.o., administered 5 times (5 successive days), from 42 days after infection, Probit method, read-out: VD50 (vermicidal dose 50%: the dose which kills 50% of the worm pairs). The protocol:
Mice were infected subcutaneously with 60 cercariae of Schistosoma mansoni. 42 days after the infection, the animals were treated perorally on 5 successive days with the compositions to be tested 5-10 mice were used for each composition and dosage rate (mg/kg). 10 untreated mice serve as the control. The mice were autopsied either 6 days or 2-3 weeks after conclusion of the treatment. Worm pairs in mesenteric veins, the portal vein and the liver were removed and counted. The percent distribution of the worm pairs in mesenteric veins, the portal vein and the liver was calculated and the condition of the worms (living and dead) recorded. The schistosomicidal activity of the compositions containing a compound of formula I is shown both by an increased proportion of worms in the vessels of the liver and in the appearance of dead worms.
For the evaluation, the percentage proportions of living and dead worm pairs in the vessels of the liver both in infected, treated animals and in infected but untreated control animals were compared. The determination of the VD50 (vermicidal dose 50%: the dose which kills 50% of the worm pairs) is carried out by the Probit method.

A further series relates to seminal vesicle. The series can be described thus: Antiandrogenic test: seminal vesicle weight in testosterone propionate-treated rats. Format: in vivo, rat. The following applies: sterilized male rats, 5 per group; s.c. daily for 7 days; compound 10 mg/kg + testosterone propionate 0.5 mg/kg, or testosterone propionate 0.5 mg/kg alone. The procedure: (§1) The antiandrogenic activity of the compositions of this invention can be determined in the following test:
(§2) 10 mg. per kg of the composition together with 0.5 mg. per kg. of testosterone propionate are administered s.c. daily for 7 days to each of 5 male, sterilized rats. Two control groups of 5 rats each were also used. One control group received no treatment. The second control group received only 0.5 mg. per kg. of testosterone propionate.
(§3) Testosterone propionate causes an increase in weight in the ventral prostrate and the seminal vesicle. Thus, a decrease in weight in the ventral prostrate and the seminal vesicle when a composition containing a compound of formula I is given to the rats in combination with testosterone propionate is a measure of the antiandrogenic activity of that compound.

Series [1] can be described thus: LD50 (acute toxicity), p.o. The following applies: in vivo, po, species not given.
Another series relates to ventral prostate. The series is described as follows: Antiandrogenic test: ventral prostate weight in testosterone propionate-treated rats. The class given is in vivo, rat. The following applies: sterilized male rats, 5 per group; s.c. daily for 7 days; compound 10 mg/kg + testosterone propionate 0.5 mg/kg, or testosterone propionate 0.5 mg/kg alone. The protocol: as §1, §2, §3

The LD50 is the dose at which mortality reaches 50%. Lower therefore signals a more toxic substance.

Values joined by “and” are separate entries in the source; they are usually repeats but may differ in a detail not shown here. Equal values may be shown once. Bounds are passed on as bounds.

Take `CC1(C)NC(=O)N(c2ccc(Cl)c(Cl)c2)C1=O` [3-(3,4-Dichloro-phenyl)-5,5-dimethyl-hydantoin]: the ED50 in the series on Schistosoma mansoni was 58 mg/kg. In the series with seminal vesicle, the Seminal vesicle weight worked out at 29 ± 2 mg. In addition, the LD50 in series [1] was 2500 to 5000 mg/kg. The Ventral prostate weight with ventral prostate was determined as 36 ± 4 mg.
For the molecule `CC1(C)NC(=O)N(c2cccc(C(F)(F)F)c2)C1=O` [3-(3-Trifluoromethyl-phenyl)-5,5-dimethyl-hydantoin], in series [1], the LD50 fell in the range of 625 to 1250 mg/kg.
Regarding `CC1(C)NC(=O)N(c2ccc(Cl)cc2)C1=O` [3-(4-Chloro-phenyl)-5,5-dimethyl-hydantoin], the ED50 in the series on Schistosoma mansoni turned out to be 77 mg/kg. Besides, the LD50 in series [1] was 1250 to 2500 mg/kg.
Take `CC1(C)NC(=O)N(c2ccc(F)cc2)C1=O` [3-(4-Fluoro-phenyl)-5,5-dimethyl-hydantoin]: the ED50 in the series with Schistosoma mansoni is 69 mg/kg. In series [1], the LD50 is 600 to 1200 mg/kg.
As for `COC(=O)C(C)(C)NC(=O)Nc1ccc(Cl)c(C(F)(F)F)c1` [N-[(3-Trifluoromethyl-4-chloro-phenyl)-carbamoyl]-2-methylalanine methyl ester], the ED50 in the series with Schistosoma mansoni is 74 mg/kg. The Seminal vesicle weight with seminal vesicle was determined as 47 ± 11 mg. This molecule showed an LD50 in series [1] of over 5000 mg/kg. The Ventral prostate weight with ventral prostate is 61 ± 6 mg.
Consider `CCC(=O)O[C@H]1CC[C@H]2[C@@H]3CCC4=CC(=O)CC[C@]4(C)[C@H]3CC[C@]12C` [Testosterone propionate, reference compound], for which the Seminal vesicle weight in the series on seminal vesicle is 88 ± 5 mg and 100 ± 9 mg. In the series with ventral prostate, the Ventral prostate weight was 140 ± 11 mg and 121 ± 13 mg.
